From ChEMBL document CHEMBL1201862, “PubChem BioAssay data set” (2004)
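Grown in 96-well plates, cells were treated for 48 hours with each compound at five concentrations. Insufficient inhibition: endpoint recorded as highest concentration tested. At the GI50, growth is halved.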 Active and inactive are the calls of the source. Cut-off read from the data, not from the text of the source: active = GI50 up to about 1.1 µM and inactive = higher.

Legend:
Experiment in all cases: NCI-60 cell line screen, 48 h
MCF7 = test system: MCF7
MDA-N = test system: MDA-N
UACC-62 = test system: UACC-62
OVCAR-4 = test system: OVCAR-4
HT-29 = test system: HT-29
COLO 205 = test system: COLO 205
RXF 393 = test system: RXF 393
LOX IMVI = test system: LOX IMVI
IGROV-1 = test system: IGROV-1
NCI-H460 = test system: NCI-H460
NCI-H226 = test system: NCI-H226
UO-31 = test system: UO-31
OVCAR-3 = test system: OVCAR-3
DU-145 = test system: DU-145
MDA-MB-231 = test system: MDA-MB-231
NCI-H522 = test system: NCI-H522
MDA-MB-435 = test system: MDA-MB-435
U-251 = test system: U-251
CAKI-1 = test system: CAKI-1
SNB-19 = test system: SNB-19

Row | SMILES | GI50 (MCF7) | GI50 (MDA-N) | GI50 (UACC-62) | GI50 (OVCAR-4) | GI50 (HT-29) | GI50 (COLO 205) | GI50 (RXF 393) | GI50 (LOX IMVI) | GI50 (IGROV-1) | GI50 (NCI-H460) | GI50 (NCI-H226) | GI50 (UO-31) | GI50 (OVCAR-3) | GI50 (DU-145) | GI50 (MDA-MB-231) | GI50 (NCI-H522) | GI50 (MDA-MB-435) | GI50 (U-251) | GI50 (CAKI-1) | GI50 (SNB-19)
1 | C[C@H](CCC(=O)O)[C@H]1CC[C@H]2[C@@H]3[C@@H](O)C[C@@H]4C[C@H](O)CC[C@]4(C)[C@H]3CC[C@]12C | 86.7 µM (inactive) | > 100 µM (inactive) | 76.2 µM (inactive) | > 100 µM (inactive) | > 100 µM (inactive) | > 100 µM (inactive) | > 100 µM (inactive) | > 100 µM (inactive) | > 100 µM (inactive) | 58.2 µM (inactive) | > 100 µM (inactive) | 57.5 µM (inactive) | 60.8 µM (inactive) | > 100 µM (inactive) | > 100 µM (inactive) | > 100 µM (inactive) | > 100 µM (inactive) | 58.6 µM (inactive) | > 100 µM (inactive) | > 100 µM (inactive)
2 | C/C(=C\c1csc(C)n1)[C@@H]1C[C@@H]2O[C@]2(C)CCC[C@H](C)[C@H](O)[C@@H](C)C(=O)C(C)(C)[C@@H](O)CC(=O)O1 [PATUPILONE] | < 0.0001 µM (active) | < 0.0001 µM (active) | < 0.0001 µM (active) | 0.000458 µM (active) | < 0.0001 µM (active) | < 0.0001 µM (active) | < 0.0001 µM (active) | < 0.0001 µM (active) | < 0.0001 µM (active) | < 0.0001 µM (active) | < 0.0001 µM (active) | < 0.0001 µM (active) | < 0.0001 µM (active) | < 0.0001 µM (active) | < 0.0001 µM (active) | < 0.0001 µM (active) | < 0.0001 µM (active) | < 0.0001 µM (active) | < 0.0001 µM (active) | < 0.0001 µM (active)
3 | CC(C)(C)OC(=O)NCCC1SC2C=CC1C2 (stereo not given) | > 100 µM (inactive) | > 100 µM (inactive) | > 100 µM (inactive) | > 100 µM (inactive) | > 100 µM (inactive) | > 100 µM (inactive) | > 100 µM (inactive) | > 100 µM (inactive) | > 100 µM (inactive) | > 100 µM (inactive) | > 100 µM (inactive) | > 100 µM (inactive) | > 100 µM (inactive) | > 100 µM (inactive) | > 100 µM (inactive) | > 100 µM (inactive) | > 100 µM (inactive) | > 100 µM (inactive) | > 100 µM (inactive) | > 100 µM (inactive)
4 | O=c1[nH]nc(Cc2ccc(Cl)cc2)n1/N=C/c1ccc([N+](=O)[O-])o1 | 1.75 µM (inactive) | 1.65 µM (inactive) | 2.87 µM (inactive) | 2.73 µM (inactive) | 2.21 µM (inactive) | 1.84 µM (inactive) | 1.56 µM (inactive) | 1.2 µM (inactive) | 2.05 µM (inactive) | 3.4 µM (inactive) | 9.18 µM (inactive) | 2.16 µM (inactive) | 0.53 µM (active) | 3.64 µM (inactive) | 3.38 µM (inactive) | 1 µM (active) | 2.4 µM (inactive) | 4.12 µM (inactive) | 3.24 µM (inactive) | 3.98 µM (inactive)
5 | CC1CCc2sc3nc(S)n(C)c(=O)c3c2C1 (stereo not given) | 35.5 µM (inactive) | 44 µM (inactive) | 33.7 µM (inactive) | 35.2 µM (inactive) | 40 µM (inactive) | 67.5 µM (inactive) | 57.9 µM (inactive) | 33.7 µM (inactive) | 37.4 µM (inactive) | 35.4 µM (inactive) | 26.7 µM (inactive) | 18.3 µM (inactive) | 22.4 µM (inactive) | 50.8 µM (inactive) | 36.7 µM (inactive) | 30.1 µM (inactive) | 50.5 µM (inactive) | 41.8 µM (inactive) | 39.2 µM (inactive) | 33.8 µM (inactive)
6 | Cc1cccc2c1C(=O)[C@](C)([C@]1(C)Nc3cccc(C)c3C1=O)N2 | 45.4 µM (inactive) | 25 µM (inactive) | 28.1 µM (inactive) | 47.6 µM (inactive) | 29.1 µM (inactive) | 19.7 µM (inactive) | 54.1 µM (inactive) | 29.3 µM (inactive) | 33.5 µM (inactive) | 31 µM (inactive) | 33 µM (inactive) | 18.1 µM (inactive) | 29.7 µM (inactive) | 54.1 µM (inactive) | 37.1 µM (inactive) | 28.6 µM (inactive) | 15.7 µM (inactive) | 60.3 µM (inactive) | 27.4 µM (inactive) | 27.3 µM (inactive)
7 | COc1cc2c3c(c1O)-c1c(ccc(OC)c1OC)CC3N(C)CC2 (stereo not given) | > 100 µM (inactive) | > 100 µM (inactive) | > 100 µM (inactive) | > 100 µM (inactive) | 77.4 µM (inactive) | > 100 µM (inactive) | > 100 µM (inactive) | > 100 µM (inactive) | > 100 µM (inactive) | > 100 µM (inactive) | > 100 µM (inactive) | > 100 µM (inactive) | > 100 µM (inactive) | > 100 µM (inactive) | > 100 µM (inactive) | > 100 µM (inactive) | > 100 µM (inactive) | > 100 µM (inactive) | > 100 µM (inactive) | > 100 µM (inactive)
8 | Cn1ccnc1Sc1ccc(/C=N/NC(=O)c2ccccc2[N+](=O)[O-])cc1[N+](=O)[O-] | 59.8 µM (inactive) | 89.1 µM (inactive) | 64.3 µM (inactive) | 57.8 µM (inactive) | 35.6 µM (inactive) | 56.2 µM (inactive) | 52.5 µM (inactive) | 37.3 µM (inactive) | 37.4 µM (inactive) | 46.5 µM (inactive) | > 100 µM (inactive) | 89.1 µM (inactive) | 98.9 µM (inactive) | 66.7 µM (inactive) | 23.1 µM (inactive) | 38.5 µM (inactive) | 66.7 µM (inactive) | > 100 µM (inactive) | 49.8 µM (inactive) | > 100 µM (inactive)
9 | C#CCOC(=O)C(N)CC(N)=O (stereo not given) | > 100 µM (inactive) | > 100 µM (inactive) | > 100 µM (inactive) | > 100 µM (inactive) | > 31.6 µM (inactive) | > 100 µM (inactive) | > 100 µM (inactive) | > 100 µM (inactive) | > 100 µM (inactive) | > 100 µM (inactive) | > 100 µM (inactive) | > 100 µM (inactive) | > 100 µM (inactive) | > 100 µM (inactive) | > 100 µM (inactive) | > 100 µM (inactive) | > 100 µM (inactive) | > 100 µM (inactive) | > 100 µM (inactive) | > 100 µM (inactive)
10 | Clc1ccc(Cc2nc3ccccc3o2)cc1 | 51.4 µM (inactive) | > 100 µM (inactive) | > 100 µM (inactive) | 48.2 µM (inactive) | 40.2 µM (inactive) | 74.6 µM (inactive) | 25.3 µM (inactive) | > 100 µM (inactive) | > 100 µM (inactive) | > 100 µM (inactive) | 40.4 µM (inactive) | 67.6 µM (inactive) | 52.8 µM (inactive) | > 100 µM (inactive) | > 100 µM (inactive) | 33.8 µM (inactive) | > 100 µM (inactive) | 72.1 µM (inactive) | 54.8 µM (inactive) | > 100 µM (inactive)
11 | O=c1ssc(Cl)c1Cl | > 7.78 µM (inactive) | > 10 µM (inactive) | > 10 µM (inactive) | > 5.6 µM (inactive) | > 10 µM (inactive) | 2.11 µM (inactive) | > 10 µM (inactive) | > 10 µM (inactive) | > 10 µM (inactive) | > 10 µM (inactive) | > 10 µM (inactive) | > 4.93 µM (inactive) | > 10 µM (inactive) | > 10 µM (inactive) | > 10 µM (inactive) | 4.05 µM (inactive) | > 10 µM (inactive) | > 10 µM (inactive) | 5.38 µM (inactive) | > 10 µM (inactive)
12 | O=C(NCCCl)Nc1ccccc1 | > 100 µM (inactive) | > 100 µM (inactive) | > 100 µM (inactive) | > 100 µM (inactive) | > 100 µM (inactive) | > 100 µM (inactive) | > 100 µM (inactive) | > 100 µM (inactive) | > 100 µM (inactive) | > 100 µM (inactive) | > 100 µM (inactive) | > 100 µM (inactive) | > 100 µM (inactive) | > 100 µM (inactive) | > 100 µM (inactive) | > 100 µM (inactive) | > 100 µM (inactive) | > 100 µM (inactive) | > 100 µM (inactive) | > 100 µM (inactive)
13 | COc1cc(OCc2nc3ccccc3n3cccc23)cc(OC)c1OC | 3.61 µM (inactive) | 19.4 µM (inactive) | 13.8 µM (inactive) | 10.8 µM (inactive) | 28.1 µM (inactive) | 16.8 µM (inactive) | > 100 µM (inactive) | 22.2 µM (inactive) | 20.3 µM (inactive) | 20.5 µM (inactive) | 9.73 µM (inactive) | 28.1 µM (inactive) | 15 µM (inactive) | 55.8 µM (inactive) | 40.6 µM (inactive) | 13.1 µM (inactive) | 16 µM (inactive) | 23.3 µM (inactive) | 29.7 µM (inactive) | > 51.1 µM (inactive)
14 | CC(=O)OCC1OC(n2c(C)c(C(C)=O)c(-c3cccc4ccccc34)c(C#N)c2=S)C(OC(C)=O)C(OC(C)=O)C1OC(C)=O (stereo not given) | > 100 µM (inactive) | > 100 µM (inactive) | > 100 µM (inactive) | > 100 µM (inactive) | > 100 µM (inactive) | > 100 µM (inactive) | > 100 µM (inactive) | > 100 µM (inactive) | > 100 µM (inactive) | > 100 µM (inactive) | > 100 µM (inactive) | < 0.01 µM (active) | > 100 µM (inactive) | > 100 µM (inactive) | > 100 µM (inactive) | > 100 µM (inactive) | > 100 µM (inactive) | > 100 µM (inactive) | > 100 µM (inactive) | > 100 µM (inactive)
